Reference: US10787430B2, “Hemoglobin modifier compounds and uses thereof” (FronThera U.S. Pharmaceuticals LLC, priority 2016, dated 2020)
Read-outs that look alike come from different tables or passages of the source.

Test: Pharmacokinetic study in rats (plasma and red blood cell)
Format: in vivo
Conditions: male, Sprague-Dawley, rat, oral, 7.2 mg/kg
Protocol: Rats (Sprague-Dawley, male, 220-280 g) were dosed with GBT-440 (HCl salt) and one of three compounds corresponding to Example 27, 29, and 38. The rats received oral (7.2 mpk) doses of the compound. Rats were fasted overnight before the experiments and provided with food four hours after dosing. The oral dosing formulations was prepared as follows: approximately 10 mg of compound was weighed precisely to an appropriate size of container, to which was added 2 mL of vehicle 0.5% methylcellulose in water and 8 μL 0.5% sodium dodecyl sulfate. The mixture was then transferred into a glass vial, and volume adjusted to appropriate volume with 0.5% methylcellulose to obtain a final concentration of 0.72 mg·mL^−1, and then vortexed and sonicated briefly.
Whole blood sample collection: Blood samples ([…]) were collected at pre-dose, 15, 30 min, 1, 2, 4, 8, 12 and 24 h via jugular vein into tubes and anticoagulated with 3.2% TSC (trisodium citrate). The proportion of anticoagulant and blood was 1:9 (v/v). The sampling time was recorded accordingly. The tubes were gently inverted several times to ensure mixing. Then 10 μL doses of whole blood sample was transferred to a new EP tube and duplicated in wet ice.
Plasma sample collection: The remaining whole blood was processed by centrifugation at 5,500 rpm for 10 min. The supernate was collected. All these whole blood and plasma samples were kept below −20° C. for 1 h prior to analysis.
(§1) Plasma sample preparation: An aliquot of 20 μL of sample was transferred to sample treatment tube (1.5 mL EP tube), and then 100 μL ACN (0.5% FA) containing Verapamil, 5 ng·mL^−1 and Glibenclamide, 50 ng·mL^−1 for protein precipitation was added. The mixture was vortexed for 30 min, and then centrifuged at 13000 rpm for 5 min at room temperature. After that, 70 μL of supernatant was transferred to a 96-Well Plate, to which 70 μL of water added and then vortexed for 10 min at room temperature. An aliquot of 10 μL of this mixture was analyzied using LC-MS/MS.
as §1, with “Whole blood” for “Plasma”, “10” for “20”, “500” for “100”, “water was” for “water”, “analyzed” for “analyzied”
Plasma and red blood cell concentration-time data were processed by linear regression analysis. All pharmacokinetic parameters were calculated using non-compartment model of Pharsight Phoenix 6.3.
Red blood cell concentrations were calculated according to the method below: Mass balance equation: Cb·VB=Cp·Vp+CBC·VBC Where, Cb=Concentration of whole blood; VB=Volume of whole blood; Cp=Concentration of plasma; Vp=Volume of plasma; CBC=Concentration of blood cell; VBC=Volume of blood cell. VBC=H·VB, where H is the hematocrit number. Vp=(1−H)·VB

AUC(0-t) (red blood cells, red blood cell (calculated by mass balance from whole blood and plasma), read-out: AUC0-24 h RBC): 1730 µg·h/mL
Cmax (red blood cells, red blood cell (calculated by mass balance from whole blood and plasma), read-out: Cmax RBC): 116 µg/mL
half-life (red blood cells, red blood cell, read-out: T1/2 RBC (converted)): 11 h
AUC(0-t) (plasma, read-out: AUC0-24 h Plasma): 10.7 µg·h/mL
Cmax (plasma, read-out: Cmax Plasma): 0.753 µg/mL
half-life (plasma, read-out: T1/2 Plasma (converted)): 11 h
Compound: [2H]C([2H])(Oc1cccc(O)c1C=O)c1cncnc1-c1ccnn1C(C)C [Example 38, 2-hydroxy-6-((4-(1-isopropyl-1H-pyrazol-5-yl)pyrimidin-5-yl)methoxy-d2)benzaldehyde]
